Assay results published in the supplement of paper PMC10307832.

Tests used:
Experiment in all cases: relative viability (nuclei count vs DMSO), 5 days (fraction); higher = more cells survive
Olaparib + Lapatinib = compound: O=C(c1cc(Cc2n[nH]c(=O)c3ccccc23)ccc1F)N1CCN(C(=O)C2CC2)CC1 [Olaparib] + CS(=O)(=O)CCNCc1ccc(-c2ccc3ncnc(Nc4ccc(OCc5cccc(F)c5)c(Cl)c4)c3c2)o1 [Lapatinib] (partner 2 µM)
In short: (§1)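 Lung cancer cell lines were seeded in 1536-well plates and dosed by pin tool the next day, with either a single drug or a fixed anchor-drug dose combined with five library-drug doses (not always all listed) spaced in √10 steps. Five days later, one step fixed the cells and stained their nuclei (final 0.05% Triton X-100, 1% formaldehyde, 1 ug/ml Hoechst), and nuclei were counted on 4× images. Relative viability is the nuclei count in treated wells divided by the count in vehicle wells, and each value is the median of duplicate plates.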

Crizotinib + Foretinib = compound: C[C@@H](Oc1cc(-c2cnn(C3CCNCC3)c2)cnc1N)c1c(Cl)ccc(F)c1Cl [Crizotinib] + COc1cc2c(Oc3ccc(NC(=O)C4(C(=O)Nc5ccc(F)cc5)CC4)cc3F)ccnc2cc1OCCCN1CCOCC1 [Foretinib] (partner 0.25 µM)
In short: as §1

Crizotinib + Pemetrexed = compound: C[C@@H](Oc1cc(-c2cnn(C3CCNCC3)c2)cnc1N)c1c(Cl)ccc(F)c1Cl [Crizotinib] + Nc1nc2[nH]cc(CCc3ccc(C(=O)N[C@@H](CCC(=O)O)C(=O)O)cc3)c2c(=O)[nH]1 [Pemetrexed] (partner 0.2 µM)
In short: as §1

Olaparib + Linsitinib = compound: O=C(c1cc(Cc2n[nH]c(=O)c3ccccc23)ccc1F)N1CCN(C(=O)C2CC2)CC1 [Olaparib] + C[C@]1(O)C[C@@H](c2nc(-c3ccc4ccc(-c5ccccc5)nc4c3)c3c(N)nccn32)C1 [Linsitinib] (partner 1 µM)
In short: as §1

Row | Cell Line | relative viability (Olaparib + Lapatinib; first compound 0.08 µM) | relative viability (Olaparib + Lapatinib; first compound 0.253 µM) | relative viability (Olaparib + Lapatinib; first compound 2.53 µM) | relative viability (Olaparib + Lapatinib; first compound 8 µM) | relative viability (Crizotinib + Foretinib; first compound 0.01 µM) | relative viability (Crizotinib + Foretinib; first compound 0.03162 µM) | relative viability (Crizotinib + Foretinib; first compound 0.3162 µM) | relative viability (Crizotinib + Foretinib; first compound 1 µM) | relative viability (Crizotinib + Pemetrexed; first compound 0.01 µM) | relative viability (Crizotinib + Pemetrexed; first compound 0.1 µM) | relative viability (Crizotinib + Pemetrexed; first compound 0.3162 µM) | relative viability (Crizotinib + Pemetrexed; first compound 1 µM) | relative viability (Olaparib + Linsitinib; first compound 0.08 µM) | relative viability (Olaparib + Linsitinib; first compound 0.253 µM) | relative viability (Olaparib + Linsitinib; first compound 2.53 µM) | relative viability (Olaparib + Linsitinib; first compound 8 µM) | relative viability (Crizotinib + Foretinib; first compound 0.1 µM) | relative viability (Crizotinib + Pemetrexed; first compound 0.03162 µM)
1 | NCI-H1395 | 0.98 | 0.661 | 0.839 | 0.435 | 0.827 | 0.937 | 0.941 | 0.959 | 0.91 | 0.888 | 0.731 | 0.88 | 1.14 | 0.896 | 0.67 | 0.734 |  | 
2 | EMC-BAC-2 | 0.921 | 0.88 | 0.852 | 0.758 | 0.984 | 0.952 | 1.04 | 1.07 | 0.442 | 0.444 |  | 0.448 | 0.945 | 0.792 | 0.85 | 0.621 | 1.02 | 0.419
3 | PC-3 [JPC-3] | 0.558 | 0.417 | 0.429 | 0.463 | 0.969 | 1.05 | 0.992 | 0.986 | 0.883 | 1.19 |  | 1.05 | 0.93 | 0.914 | 0.962 | 0.908 | 1.01 | 1.23
4 | NCI-H1734 | 1.1 | 0.974 | 0.933 | 0.749 | 0.811 | 0.847 |  | 0.805 | 0.411 | 0.403 |  | 0.395 | 0.998 | 0.809 | 0.799 | 0.579 | 0.753 | 0.442
5 | HOP-62 | 1.22 | 1.08 | 0.741 | 0.538 | 1.09 | 1.09 | 1.07 | 1.17 | 0.347 | 0.331 | 0.28 | 0.31 | 1.11 | 1.16 | 0.968 | 0.47 | 1.07 | 0.266
6 | HARA | 0.836 | 0.725 | 0.699 | 0.763 | 0.924 | 0.705 |  | 0.877 | 0.222 | 0.257 | 0.183 | 0.236 | 1.07 | 0.829 | 1.04 | 0.792 | 0.858 | 0.242
7 | NCI-H2023 | 1.08 | 0.755 | 0.763 | 0.691 | 0.745 | 0.799 | 0.848 | 0.939 | 0.149 | 0.172 | 0.189 | 0.209 | 0.754 | 0.608 | 0.535 | 0.469 | 0.787 | 0.226
8 | NCI-H1993 | 0.932 | 0.779 | 0.855 | 0.77 | 0.848 | 0.9 | 0.827 | 0.82 | 0.57 | 0.503 | 0.528 | 0.47 | 0.745 | 0.749 | 0.831 | 0.78 | 0.741 | 0.632
9 | NCI-H460 | 1.28 | 0.874 | 0.679 | 0.172 | 0.801 | 1.05 | 1.02 | 1.07 | 0.0615 | 0.0607 | 0.0596 | 0.0647 | 0.86 | 0.614 | 0.316 | 0.191 | 0.996 | 0.0628
